Measured values as given in patent US20250034185A1 (priority 2021, published 2025).

Test system: plasma enzymes
Conditions: Sprague Dawley, rat
For P5P formed in this document: test concentration or dose not given here.

SMILES | P5P formed | relative P5P formed
COC(=O)[C@H](C)NP(=O)(OCc1cnc(C)c(O)c1CO)Oc1ccccc1 (stereo partly drawn) [Compound 15vi, (2S)-Methyl 2-(((5-hydroxy-4-(hydroxymethyl)-6-methylpyridin-3-yl)methoxy)(phenoxy)phosphorylamino)propanoate] | 0 µM | 0.0%
[2H]C([2H])([2H])C(OC(=O)[C@H](C)NP(=O)(OCc1cnc(C)c(O)c1CN)Oc1ccccc1)C([2H])([2H])[2H] (stereo partly drawn) [Compound 14viii] | 0.3 µM | 17.6%
[2H]c1c([2H])c([2H])c(OP(=O)(N[C@@H](C)C(=O)OC(C)C)OCc2cnc(C)c(O)c2C=O)c([2H])c1[2H] (stereo partly drawn) [Compound 16xx] | 1.4 µM | 38.9%
Cc1ncc(COP(=O)(N[C@@H](C)C(=O)Oc2ccc3c(c2)CCCC3)Oc2ccccc2)c(CN)c1O (stereo partly drawn) [Compound 14xii, (2S)-5,6,7,8-Tetrahydronaphthalen-2-yl 2-(((4-(aminomethyl)-5-hydroxy-6-methylpyridin-3-yl)methoxy)(phenoxy)phosphorylamino)propanoate] | 0.2 µM | 5.3%
Cc1ncc(COP(=O)(NCC(=O)OC(C)C)Oc2ccccc2)c(CN)c1O (stereo not drawn) [Compound 14ii, Isopropyl 2-(((4-(aminomethyl)-5-hydroxy-6-methylpyridin-3-yl)methoxy)(phenoxy)phosphorylamino)acetate] | 0 µM | 0.0%
Cc1ncc(COP(=O)(N[C@@H](C)C(=O)OCC2CCCC2)Oc2ccccc2)c(CO)c1O (stereo partly drawn) [Compound 15vii, (2S)-Cyclopentylmethyl 2-(((5-hydroxy-4-(hydroxymethyl)-6-methylpyridin-3-yl)methoxy)(phenoxy)phosphorylamino)propanoate] | 0 µM | 0.0%
Cc1ncc(COP(=O)(N[C@@H](C)C(=O)OC(C)C)Oc2ccc(Br)cc2F)c(C=O)c1O (stereo partly drawn) [Compound 16xxxix, (2S)-Isopropyl 2-((4-bromo-2-fluorophenoxy)((4-formyl-5-hydroxy-6-methylpyridin-3-yl)methoxy)phosphorylamino)propanoate] | 2.3 µM | 92.0%
Cc1ncc(COP(=O)(N[C@@H](Cc2cn(C(=O)OC(C)(C)C)c3ccccc23)C(=O)OC(C)C)Oc2ccccc2)c(C=O)c1O (stereo partly drawn) [Compound 16xiii, Tert-butyl 3-((2S)-2-(((4-formyl-5-hydroxy-6-methylpyridin-3-yl)methoxy)(phenoxy)phosphorylamino)-3-isopropoxy-3-oxopropyl)-1H-indole-1-carboxylate] | 0.3 µM | 7.9%
CCC(CC)COC(=O)[C@H](C)NP(=O)(OCc1cnc(C)c(O)c1CN)Oc1ccccc1 (stereo partly drawn) [Compound 14i, (2S)-2-Ethylbutyl 2-(((4-(aminomethyl)-5-hydroxy-6-methylpyridin-3-yl)methoxy)(phenoxy)phosphorylamino)propanoate] | 0.17 µM | 4.0%
Cc1ncc(COP(=O)(N[C@@H](C)C(=O)Oc2ccc3ccccc3c2)Oc2ccccc2)c(CO)c1O (stereo partly drawn) [Compound 15iv, (2S)-Naphthalen-2-yl 2-(((5-hydroxy-4-(hydroxymethyl)-6-methylpyridin-3-yl)methoxy)(phenoxy)phosphorylamino)propanoate] | 0.65 µM | 6.2%
Cc1ncc(CO[P@@](=O)(N[C@@H](C)C(=O)OC(C)C)Oc2ccccc2)c(CO)c1O [Compound 15i, (S)-Isopropyl 2-((S)-((5-hydroxy-4-(hydroxymethyl)-6-methylpyridin-3-yl)methoxy)(phenoxy)phosphorylamino)propanoate] | 0.15 µM | 2.6%
Cc1ncc(COP(=O)(N[C@@H](C)C(=O)OC(C)C)Oc2ccccc2)c(CN)c1O (stereo partly drawn) [Compound 14, (2S)-Isopropyl 2-(((4-(aminomethyl)-5-hydroxy-6-methylpyridin-3-yl)methoxy)(phenoxy)phosphorylamino)propanoate] | 0 µM | 0.0%
Cc1ccc(OP(=O)(N[C@@H](C)C(=O)OC(C)C)OCc2cnc(C)c(O)c2C=O)cc1 (stereo partly drawn) [Compound 16xxxvii, (2S)-Isopropyl 2-(((4-formyl-5-hydroxy-6-methylpyridin-3-yl)methoxy)(p-tolyloxy)phosphorylamino)propanoate] | 0.3 µM | 12.0%
COCCOC(=O)[C@H](C)NP(=O)(OCc1cnc(C)c(O)c1C=O)Oc1ccccc1 (stereo partly drawn) [Compound 16xxxii, (2S)-2-Methoxyethyl 2-(((4-formyl-5-hydroxy-6-methylpyridin-3-yl)methoxy)(phenoxy)phosphorylamino)propanoate] | 4.9 µM | 144.1%
Cc1ncc(COP(=O)(N[C@@H](CC(C)C)C(=O)OC(C)C)Oc2ccccc2)c(CO)c1O (stereo partly drawn) [Compound 15xiii, (2S)-Isopropyl 2-(((5-hydroxy-4-(hydroxymethyl)-6-methylpyridin-3-yl)methoxy)(phenoxy)phosphorylamino)-4-methylpentanoate] | 0.8 µM | 15.7%
Cc1ncc(COP(=O)(N[C@@H](C)C(=O)OCc2ccccc2)Oc2ccccc2)c(/C=N/CCc2ccc(C#N)cc2)c1O (stereo partly drawn) [Compound 16xxxviii, (2S)-Benzyl 2-(((4-((E)-(4-cyanophenethylimino)methyl)-5-hydroxy-6-methylpyridin-3-yl)methoxy)(phenoxy)phosphorylamino)propanoate] | 0.5 µM | 14.7%
Cc1ncc(COP(=O)(N[C@H](C(=O)OC(C)C)C2CCCC2)Oc2ccccc2)c(CO)c1O (stereo partly drawn) [Compound 15xii, (2S)-Isopropyl 2-cyclopentyl-2-(((5-hydroxy-4-(hydroxymethyl)-6-methylpyridin-3-yl)methoxy)(phenoxy)phosphorylamino)acetate] | 0.2 µM | 7.4%
Cc1ncc(COP(=O)(N[C@@H](C)C(=O)OC(C)C)Oc2cccc3ccccc23)c(CN)c1O (stereo partly drawn) [Compound 14ix, (2S)-Isopropyl 2-(((4-(aminomethyl)-5-hydroxy-6-methylpyridin-3-yl)methoxy)(naphthalen-1-yloxy)phosphorylamino)propanoate] | 0.4 µM | 6.3%
Cc1ncc(COP(=O)(N[C@@H](C)C(=O)OC(C)C)Oc2ccccc2)c(CO)c1O (stereo partly drawn) [Compound 15ii, (S)-Isopropyl 2-((R)-((5-hydroxy-4-(hydroxymethyl)-6-methylpyridin-3-yl)methoxy)(phenoxy)phosphorylamino)propanoate] | 0 µM | 0.0%
Cc1ncc(COP(=O)(N[C@H](C(=O)OC(C)C)C2CCCC2)Oc2ccccc2)c(C=O)c1O (stereo partly drawn) [Compound 16xxviii, (2S)-Isopropyl 2-cyclopentyl-2-(((4-formyl-5-hydroxy-6-methylpyridin-3-yl)methoxy)(phenoxy)phosphorylamino)acetate] | 0.4 µM | 9.8%
Cc1ccc(OC(=O)[C@H](C)NP(=O)(OCc2cnc(C)c(O)c2C=O)Oc2ccccc2)cc1 (stereo partly drawn) [Compound 16xxiii, (2S)-p-Tolyl 2-(((4-formyl-5-hydroxy-6-methylpyridin-3-yl)methoxy)(phenoxy)phosphorylamino)propanoate] | 2 µM | 74.1%
